According to patent US20130251644A1, “Cyclodextrin-Based Microemulsions, and Dermatological Uses Thereof” (PRECISION DERMATOLOGY, INC., priority 2012, published 2013):

Legend:
[1] = cited from earlier work
[2] = Solubility/dispersibility of retinol in the Labrasol-HPGCD-water systems and in water; type: physicochemical
Excerpt: Microemulsion preparation: Any two components (examples: Labrasol®-water, HPXCD-water, or Labrasol®-HPXCD) were mixed (in different ratios) in different scintillation vials and then the third component was titrated to each vial until a clear-to-turbid or turbid-to-clear transition occurred (in simple situations). Finally wt % percentages data for each component (Labrasol®, water, and cyclodextrin) were plotted to construct the ternary phase diagram.
Cyclodextrin used: hydroxypropyl-X-cyclodextrin (X=alpha, beta, or gamma).
Any two components (examples: Labrasol®-water, cyclodextrin-water, or Labrasol®-HPBCD) were mixed (in different ratios) in different scintillation vials and then the third component was titrated to each vial until a clear-to-turbid or turbid-to-clear transition occurred (in simple situations). Finally wt % percentages data for each component (Labrosol, water, and cyclodextrin) were plotted to construct the ternary phase diagram.

amount of retinol that can be incorporated into the cyclodextrin-based microemulsions ([2]; cyclodextrin-based microemulsion systems): greater than 1.0 wt % | miscibility in Labrasol®-HPGCD-water microemulsion system ([2]; final retinol concentration 1.2%, clear transparent system (vials 8 and 1, FIG. 4(b), 4(c))): complete miscibility
Compound: CC1=C(/C=C/C(C)=C/C=C/C(C)=C/CO)C(C)(C)CCC1 [solid retinol, Retinol]
miscibility in water [1]: immiscible in water
